Data from PMC6063804 (EJNMMI Research, 2018).
Values joined by “and” are separate entries in the source; they are usually repeats but may differ in a detail not shown here. Identical values can stand only once. Like-named read-outs stand apart in the source and are kept apart here.

Tests used:
[1] = cited from earlier work
NMDA-R = details: cited from earlier work
[2] = ex vivo rodent, cited from earlier work
[3] = tested on: ion channel binding site of NMDA receptors; experiment: [^18F]PK-209 brain PET, test–retest and kinetic modeling; type: in vivo, human; details: for K i: net influx rate, individual subjects S1–S5
Procedure: In total, 20 PET scans were acquired on a Gemini TF-64 PET/CT scanner (Philips Medical Systems, Cleveland, OH, USA). Five subjects underwent [^18F]PK-209 test–retest (TRT) scans 31–61 days apart over a period of 211 days. Another five subjects underwent baseline and ketamine scans 13–161 days apart over a period of 258 days. At the start of each scan [^18F]PK-209 was injected as an intravenous bolus with a mean injected activity of 187 ± 7 MBq. All scans were performed between 12:00 and 15:00 h to minimize diurnal variation. Duration of daylight on each scan day was calculated to investigate seasonal changes in tracer binding. Dynamic PET data were acquired for 120 min and binned into 25 time frames (1 × 15, 3 × 5, 3 × 10, 4 × 60, 2 × 150, 2 × 300, 10 × 600 s). PET was followed by a low-dose CT (30 mAs, 120 kVp) for attenuation correction and localization. Data were reconstructed using a three-dimensional row action maximum likelihood reconstruction algorithm (3-D RAMLA). Acquired PET data were normalized and corrected for dead time, randoms, scatter, attenuation, and decay.
Prior to the PET studies, structural three-dimensional coronal T1-weighted magnetic resonance images (MRI) were acquired for all subjects on a 1.5T Sonata scanner (Siemens Medical Solutions, Erlangen, Germany) with 160 coronal slices using echo time 3.97 ms, repetition time 2700 ms, flip angle 8°, and voxel size 1.0 × 1.5 × 1.0 mm^3. Subject motion was checked by visual inspection of the alignment of intrasubject PET frames, and no frames were excluded due to excessive movement. T1-weighted MRI scans were co-registered to an average of the PET frames from ~ 4–70 min p.i. using VINCI software. The co-registered MRI scans were segmented into gray matter (GM), white matter, and extra-cerebral fluid, using PVE-lab. Subsequently, 68 regions of interest (ROIs), including whole brain, were derived from the Hammers atlas and used to extract GM time-activity curves (TACs). As a last step, the TACs of 60 out of the 67 ROIs were redefined into nine volume-weighted ROIs by combining the radioactivity at each timepoint according to the equation Bq¯=∑iαi×Bqi/∑iαi , where αi is the volume (in mm^3) of region i, and Bqi the counts per mm^3 of region i. The selection of ROIs was based on the widespread NMDA-R availability in the brain: frontal, temporal, occipital, and parietal cortices; hippocampus; thalamus; insula; brainstem; dorsal striatum; and cerebellum, as well as whole brain GM from the Hammers atlas. Standardized uptake values (SUV; equalling measured activity divided by injected dose per body weight) were calculated for whole brain GM.
Using the metabolite-corrected arterial plasma input function, all GM TACs were fitted to single-tissue (1T2k), two-tissue irreversible (2T3k), and reversible (2T4k) compartmental models, both with and without an additional parameter for fractional blood volume (VB). The non-metabolite-corrected arterial whole blood curve was used as input function for VB. The optimal tracer kinetic model for describing in vivo kinetics of [^18F]PK-209 was determined according to the Akaike Information Criterion (AIC). Depending on the model preference, outcome measures were the net influx constant (Ki = K1 k3/(k2 + k3)) or the distribution volume (VT=K1/k2(1+k3/k4)) . For subsequent group level analysis (e.g., TRT variability and ketamine effects), all scans were analyzed using the same, most preferred, tracer kinetic model. Non-displaceable distribution volumes (VND = K1/k2) as well as K1 and k3 values are also reported separately.
The absolute percentage TRT variability of kinetic parameters between test and retest scans was calculated using the equation TRT variability = 2 · (ρretest − ρtest)/(ρtest + ρretest) · 100, where ρ is the kinetic parameter of interest. The between-subject coefficient of variation was calculated as the standard deviation divided by the sample mean · 100. […]

CSc1ccc(Cl)c(NC(=N)N(C)c2cccc(OC[18F])c2)c1 [[^18F]PK-209, 3-(2-chloro-5-(methylthio)phenyl)-1-(3-([^18F]fluoromethoxy)phenyl)-1-methylguanidine]
LogDoct,7.4 [1]: 1.45 | reduction in mean SUVAUC after MK-801 administration (NMDA-R; non-human primate): 15% | volume of distribution (VT) compared with baseline (NMDA-R; rhesus monkeys, IV 0.3 mg ∙ kg^−1 MK-801 30 min before PET): reduced the volume of distribution (VT) compared with baseline in two out of three subjects | retention in NMDA-R-rich cortical regions relative to the cerebellum (NMDA-R; rhesus monkeys): prolonged retention | non-polar metabolite fraction in brain ([2]; 15 min p.i.): 18% | non-polar metabolite fraction in brain ([2]; 60 min p.i.): 25% | polar metabolites, contribution to total brain radioactivity ([2]; 60 min p.i.): 4% | Mean test K i ([3]; 2T3k_VB, population IF): 0.0152 min⁻¹ | Mean retest K i ([3]; 2T3k_VB, single scan IF): 0.0143 min⁻¹ | Mean test K i ([3]; 2T3k_VB, single scan IF): 0.0183 min⁻¹ | Mean retest K 1 ([3]; human, in vivo): 0.426 mL · cm^3 · min^−1 | Mean retest V ND ([3]; human, in vivo): 7.34 | Mean retest k 3 ([3]; human, in vivo): 0.0021 min⁻¹ | Mean test K 1 ([3]; human, in vivo): 0.473 mL · cm^3 · min^−1 | Mean test K i ([3]; human, in vivo): 0.0161 min⁻¹ | Mean test V ND ([3]; human, in vivo): 9.09 | Mean test k 3 ([3]; human, in vivo): 0.0021 min⁻¹ | peak uptake SUV ([3]; human, in vivo): 3.6-5.7 | time of peak uptake ([3]; human, in vivo): around 10 min | whole brain SUV90–120 ([3]; human, in vivo): 1.64 | brain activity as % of the peak ([3]; human, in vivo, 120 min): 25-40% | defluorination (radioactivity uptake in jaw and skull) ([3]; in vivo): no defluorination | K i ([3]; 2T3k_VB, population IF, retest scan): 0.0201 min⁻¹ | K i ([3]; 2T3k_VB, population IF, test scan): 0.0147 min⁻¹ and 0.0193 min⁻¹ | K i ([3]; 2T3k_VB, single scan IF, retest scan): 0.0182 min⁻¹ and 0.0152 min⁻¹ | K i ([3]; 2T3k_VB, within-subject IF, retest scan): 0.0162 min⁻¹ | K i ([3]; 2T3k_VB, within-subject IF, test scan): 0.0118 min⁻¹ | whole brain SUV90–120 ([3]; test scans, average): 1.68
